Values quoted from earlier work, collected in patent publication EP4752146A1, “NOVEL CA[…] CARRIER-DRUG CONJUGATE COMPRISING SAME” (priority 2023, dated 2025).

System: cancer cells
Conditions: background

Compound | activity in cancer cells relative to SN-38 (higher than SN-38) | IC50 (various cell lines)
CC[C@@]1(O)C(=O)OCc2c1cc1n(c2=O)Cc2c-1nc1cc(F)c(C)c3c1c2[C@@H](NC(=O)CO)CC3 [DXd] | approximately 10 fold | 
CCc1c2c(nc3ccc(O)cc13)-c1cc3c(c(=O)n1C2)COC(=O)[C@]3(O)CC [SN-38] |  | nanomolar range
